Six compounds from ChEMBL document CHEMBL1157158, “Synthesis and neuropharmacological evaluation of 2-aryl- and alkylapomorphines” (Bioorg Med Chem, 2008) can be followed below.

Assay [1] has as its system Mus musculus. Briefly: Dopaminergic activity in CD1 mouse tuberculum olfactorium assessed as dopamine turn over at 3.29 umol/kg, sc relative to control. The class given is functional.
Assay [2] concerns Mus musculus. Nature of the assay: Dopaminergic activity in CD1 mouse striatum assessed as dopamine turn over at 3.29 umol/kg, sc relative to control. The format is functional.
The next assay has as its target D(3) dopamine receptor (Rattus norvegicus, UniProt P19020). Briefly: biochemical.
The target in another assay is D(2) dopamine receptor (Rattus norvegicus, UniProt P61169). Briefly: Displacement of [3H]spiperone from rat dopamine D2 receptor in brain striatal membrane. The format is cell membranes. (Loss of bound radioactivity is the signal in a displacement assay; it reports binding, not function.)

The structures appear in SMILES notation. pIC50, pKi: −log10 of the molar value.

As a reminder, the pIC50 is the IC50 on a negative log10 scale, so that one unit is a factor of ten. High values mean a small IC50, low ones a large IC50. Usually pKi stands for the Ki on a negative log10 scale, so that one unit is a factor of ten. The low end stands for a high Ki, the high end for a low Ki.

Chain of D(3) dopamine receptor (P19020 whole entry): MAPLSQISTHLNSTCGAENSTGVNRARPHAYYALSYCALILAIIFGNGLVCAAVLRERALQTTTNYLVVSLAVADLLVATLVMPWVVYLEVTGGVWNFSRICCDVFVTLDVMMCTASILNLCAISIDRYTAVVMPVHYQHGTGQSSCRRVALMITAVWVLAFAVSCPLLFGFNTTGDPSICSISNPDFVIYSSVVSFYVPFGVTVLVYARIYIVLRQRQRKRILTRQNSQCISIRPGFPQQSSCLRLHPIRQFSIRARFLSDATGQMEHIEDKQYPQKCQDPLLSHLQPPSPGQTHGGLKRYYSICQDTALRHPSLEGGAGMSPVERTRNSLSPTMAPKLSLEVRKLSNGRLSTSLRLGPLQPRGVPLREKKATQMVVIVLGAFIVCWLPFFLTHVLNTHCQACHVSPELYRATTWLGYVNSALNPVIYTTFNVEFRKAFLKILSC
Chain of D(2) dopamine receptor (P61169 whole entry): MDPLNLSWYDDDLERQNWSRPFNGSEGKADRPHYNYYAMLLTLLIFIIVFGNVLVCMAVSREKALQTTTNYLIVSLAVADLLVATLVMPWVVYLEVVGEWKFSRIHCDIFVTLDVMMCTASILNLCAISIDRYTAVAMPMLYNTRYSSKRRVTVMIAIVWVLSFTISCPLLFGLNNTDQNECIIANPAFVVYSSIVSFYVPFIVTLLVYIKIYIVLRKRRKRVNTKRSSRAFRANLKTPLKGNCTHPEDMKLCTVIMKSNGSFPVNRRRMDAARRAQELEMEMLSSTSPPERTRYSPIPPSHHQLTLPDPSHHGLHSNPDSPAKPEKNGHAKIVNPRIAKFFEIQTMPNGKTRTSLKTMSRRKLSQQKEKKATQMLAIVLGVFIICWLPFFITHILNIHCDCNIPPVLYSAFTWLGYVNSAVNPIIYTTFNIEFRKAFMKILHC
Description for D(3) dopamine receptor: Displacement of [3H]spiperone from rat recombinant dopamine D3 receptor expressed in SF9 cells

Regarding `CN1CCc2cccc3c2[C@H]1Cc1ccc(O)c(O)c1-3.CN1CCc2cccc3c2[C@H]1Cc1ccc(O)c(O)c1-3.Cl.Cl.O` [APOMORPHINE HYDROCHLORIDE], the values for the Activity in the assay with Mus musculus [1] and with Mus musculus [2] were 57.7% and 48.6%, respectively.
In the case of `CN1CCc2cc(-c3ccc(O)cc3)cc3c2[C@H]1Cc1ccc(O)c(O)c1-3.Cl`, the results for the Activity in the assay with Mus musculus [1] and in the assay with Mus musculus [2] were 39.6% and 43.6%, respectively. Moreover, the pIC50 is 8.43 against D(3) dopamine receptor and 8.07 on D(2) dopamine receptor. For the same compound, the results for the pKi at D(3) dopamine receptor and at D(2) dopamine receptor were 8.75 and 8.38, respectively.
For `CN1CCc2cc(-c3ccccc3)cc3c2[C@H]1Cc1ccc(O)c(O)c1-3.Cl`, the Activity is given as 50.9% in the assay on Mus musculus [1] and 44.2% in the assay with Mus musculus [2]. Also, the pIC50 is 7.83 at D(3) dopamine receptor and 7.63 at D(2) dopamine receptor. Moreover, the results for the pKi on D(3) dopamine receptor and at D(2) dopamine receptor were 8.11 and 7.93, respectively.
For the compound `Cc1cc2c3c(c1)-c1c(ccc(O)c1O)C[C@H]3N(C)CC2.Cl`, the Activity with Mus musculus [1] turned out to be 43.6%; with Mus musculus [2], 42.3%. For the same compound, the results for the pIC50 on D(3) dopamine receptor and at D(2) dopamine receptor were 7.08 and 7.37, respectively. For the same compound, the pKi at D(3) dopamine receptor is 7.40; on D(2) dopamine receptor, 7.68.
Take `CN(C)c1ccc(-c2cc3c4c(c2)-c2c(ccc(O)c2O)C[C@H]4N(C)CC3)cc1.Cl.Cl`: the Activity in the assay with Mus musculus [1] is 84.5%; with Mus musculus [2], 52.3%. Moreover, the pIC50 against D(3) dopamine receptor is 6.75; on D(2) dopamine receptor, 6.32. In addition, the results for the pKi at D(3) dopamine receptor and on D(2) dopamine receptor were 7.11 and 6.62, respectively.
Take `CN1CCc2cc(-c3cccc4c3oc3ccccc34)cc3c2[C@H]1Cc1ccc(O)c(O)c1-3.Cl`: the Activity is 106.1% in the assay with Mus musculus [1] and 92% in the assay on Mus musculus [2]. For the same compound, the pIC50 against D(3) dopamine receptor was 7.31; at D(2) dopamine receptor, 5.49. Moreover, the pKi at D(3) dopamine receptor is 7.65; at D(2) dopamine receptor it was 5.79.
